# In patent US20080193549A1, “Hoki Fish Liver Oil, Fractions Thereof And Therapeutic Uses” (Otago Innovation Limited, priority 2004, published 2008):
# Assays:
# [1] = tested on: activated neutrophils; test: neutrophil activation: superoxide production (WST-1); type: cell-based, rat; settings: 100 μg/ml, positive control
# Description: The in vitro anti-inflammatory screening assay used in this investigation involved determining the effect of a test material on activated neutrophils. The production of superoxide was measured. Neutrophils were prepared from fresh rat blood and diluted with phosphate-buffered saline (PBS) and adjusted to a concentration of 10^7 cells per ml. The purity of the preparation was 95% or higher. The test sample was pre-incubated with a cell suspension at 37° C. for 15 minutes in wells of a 96 well culture plate. Then catalase and WST-1 dye reagent were added to each incubate (including controls). Each was then activated with phorbol myristate acetate (100 ng/ml). After incubation for 1 hr at 37° C. the reaction was stopped and the level of superoxide produced from oxidation of the dye WST by the superoxide in each well of the plate determined calorimetrically at 450 nm. As a positive control, triplicate wells with aspirin (100 μg/ml) were assayed. Each sample was assessed at three different concentrations.
# [2] = tested on: rat monocytes; test: macrophage assay: conversion of monocytes to macrophages (nitric oxide, Griess); type: cell-based
# Description: A diluent composed of RPMI culture media containing 10% foetal calf serum (FCS) was prepared. A density gradient barrier was prepared by mixing a working solution [Optiprep: diluent, 2:1, v/v] with further diluent in a ratio of 2.3 to 5.0. The density of 1.076 g/ml is required for isolating rat monocytes. Freshly isolated rat blood was cooled to 4° C. 5 ml of the density gradient was layered over 5 ml of the blood and 5 ml of diluent was then layered gently on top. After centrifuging at 700 g for 30 min at 4° C., the monocytes were collected from the top of the 1.076 g/ml layer and diluted with 2 volumes of diluent and the pellet was gently resuspended in Hanks Balanced Salt Solution (HBSS). The cell concentration and the relative purity were determined. 500 μl Aliquots of cell suspension were used. […] 10 μl of LPS (5 mg/ml) was then added to all tubes, except the control, to give a final concentration of LPS of approximately 20 μg/ml. The cells were incubated overnight at 37° C. and then centrifuged at 12,000 g (4° C.) for 5 min. The supernatants were collected and aliquots of these were then assayed in duplicate for the concentration of nitric oxide (NO) by the Griess reagent procedure using a kit (Sigma, St Louis, USA).
Structure (SMILES),Absorbance units (superoxide production) [1] [Absorbance units],"inhibition at 100 µg/mL ([1]; Rattus norvegicus, Neutrophil) [%]",% Inhibition of conversion of monocytes to macrophages (NO production) ([2]; 2.5 μM) [%],Absorbance units (nitric oxide production) ([2]; 2.5 μM) [Absorbance units],% Inhibition of conversion of monocytes to macrophages (NO production) ([2]; 5 μM) [%],Absorbance units (nitric oxide production) ([2]; 5 μM) [Absorbance units]
"CC(=O)Oc1ccccc1C(=O)O [Aspirin, aspirin]",0.3095,46.9,,,,
CNC(=N)NCCC[C@H](N)C(=O)O [L-NMMA],,,44.94,1.568,75.07,0.710
